Data: patent US20240122865A1, “Methods of Protecting RNA” (Pfizer Inc., priority 2021, published 2024)

Columns and labels:
Assay type in all cases: biochemical, Trichoderma atroviride
Chi18 model RNA [1] = test: TapeStation Assay, Chi18 model RNA; design: Conc. chi18#1 / Conc. chi18#2: unit not given here; settings: for % Control N = 1 / % Control N = 2 / % Control Avg.: Chi18 RNA, 20 mM amino acids, 50 mM CAPS pH 11, 50° C. 15 min; for % Control N = 1 / % Control N = 2: vs Time 0; for % Control Avg.: vs Time 0, Avg N=2; for Conc. chi18#1 / Conc. chi18#2: intact Chi18 RNA after 15 min at 50° C.; for Conc. chi18#1: 20 mM amino acids in 50 mM CAPS pH 11, run #1; for Conc. chi18#2: 20 mM amino acids in 50 mM CAPS pH 11, run #2
Method in brief: (§1)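 Chi18 or FgenL model RNA at 50 ng/μL in 50 mM CAPS pH 11 was mixed with amino acids (stocks in CAPS, readjusted to >pH 11) and heated at 50° C for 0 or 15 minutes; time-0 samples stayed on ice. Intact RNA was measured by capillary electrophoresis with optical detection and compared with a no-degradation baseline.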

Chi18 model RNA [2] = test: Droplet Digital Polymerase Chain Reaction (ddPCR) Assay, Chi18; settings: percent protection, pH 11.0, 30° C., 16 hours, n = 2
Method in brief: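 Chi18 (25 fg/μL) or FgenL (10 fg/μL) RNA at pH 11.0 incubated 16 h with amino acids (10-point half-log series, ~300 mM top stock in CAPS), at 30° C or 44° C respectively. Intact RNA reverse-transcribed, ddPCR 5′-positive droplet fraction taken as protection; EC50 from four-parameter logistic fit.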

Chi18 mRNA construct = test: Size Exclusion Base Hydrolysis Degradation Assay, Chi18; settings: for T0 R1 peak area at 250 nm: Chi18 0.1 mg/mL, 25 mM amino acid, 50 mM CAPS, T=0, replicate 1; for T2 Avg, peak area as percentage of T=0 / T2 R1 peak area at 250 nm / T10 Avg, peak area as percentage of T=0 / T10 R1 peak area at 250 nm / T24 Avg, peak area as percentage of T=0 / T24 R1 peak area at 250 nm / T0 Avg, peak area as percentage of T=0: Chi18, 25 mM amino acid; for T2 Avg, peak area as percentage of T=0 / T2 R1 peak area at 250 nm / T10 Avg, peak area as percentage of T=0 / T10 R1 peak area at 250 nm / T24 Avg, peak area as percentage of T=0 / T24 R1 peak area at 250 nm: 50 mM CAPS pH 11, room temperature; for T2 Avg, peak area as percentage of T=0 / T2 R1 peak area at 250 nm: 2 hrs; for T2 R1 peak area at 250 nm / T10 R1 peak area at 250 nm / T24 R1 peak area at 250 nm: replicate 1; for T10 Avg, peak area as percentage of T=0 / T10 R1 peak area at 250 nm: 10 hrs; for T24 Avg, peak area as percentage of T=0 / T24 R1 peak area at 250 nm: 24 hrs; for T0 Avg, peak area as percentage of T=0: T=0 (reference)
Protocol: Basic assay procedure: RNA samples were diluted to 1.0 mg/mL in DNAase/RNAase free water. Amino acids were dissolved in water to a stock solution of 100 mM and a solution of 500 mM CAPS pH 11 was used. The two mRNA constructs tested were FgenL and Chi18. Each individual sample volume was 50 μL. To determine the amount of 1 M NaOH needed to adjust the final pH to 11.0 after the addition of all sample components, the sample volume was increased 100 fold (5 mL), the volume of 1 M NaOH recorded and this value was translated back down to the 50 μL sample volume.
The mRNA and amino acid were allowed to incubate for one hour prior to the addition of CAPS pH 11. All steps of the assay were conducted at room temperature.
Degradation reaction: After the CAPS addition, the samples were injected onto the Waters H-Class UPLC system to record the first timepoint, T=O. This resulting chromatogram was processed by integrating the area of absorbance at 250 nm for the mRNA construct. Immediately following this timepoint, the pH was adjusted to 11. Subsequent time points (2 hrs, 10 hrs, and 24 hrs) recorded the Absorbance Units (peak area) at 250 nm as a percentage of the peak area determined at T=O. Integration of the chromatogram for subsequent timepoints was conducted by analyzing the area of absorbance at 250 nm contained within the same time window in which the peak eluted in T=0 for the 100% intact mRNA.

FgenL model RNA [3] = test: TapeStation Assay, FgenL model RNA; design: Conc. FgenL#1 / Conc. FgenL#2: unit not given here; settings: for % Control N = 1 / % Control N = 2 / % Control Average: FgenL RNA, 20 mM amino acids, 50 mM CAPS pH 11, 50° C. 15 min; for % Control N = 1 / % Control N = 2: vs Time 0; for % Control Average: vs Time 0, Avg N=2; for Conc. FgenL#1 / Conc. FgenL#2: intact FgenL RNA after 15 min at 50° C.; for Conc. FgenL#1: 20 mM amino acids in 50 mM CAPS pH 11, run #1; for Conc. FgenL#2: 20 mM amino acids in 50 mM CAPS pH 11, run #2
Method in brief: as §1

FgenL model RNA [4] = settings: percent protection, pH 11.0, 44° C., 16 hours, n = 2

Compound	% Control N = 1 (Chi18 model RNA [1]) [%]	% Control N = 2 (Chi18 model RNA [1]) [%]	% Control Avg. (Chi18 model RNA [1]) [%]	Conc. chi18#1 (Chi18 model RNA [1])	Conc. chi18#2 (Chi18 model RNA [1])	EC50 (Chi18 model RNA [2]) [mM]	T0 R1 peak area at 250 nm (Chi18 mRNA construct)	T2 Avg, peak area as percentage of T=0 (Chi18 mRNA construct) [%]	T2 R1 peak area at 250 nm (Chi18 mRNA construct)	T10 Avg, peak area as percentage of T=0 (Chi18 mRNA construct) [%]	T10 R1 peak area at 250 nm (Chi18 mRNA construct)	T24 Avg, peak area as percentage of T=0 (Chi18 mRNA construct) [%]	T24 R1 peak area at 250 nm (Chi18 mRNA construct)	T0 Avg, peak area as percentage of T=0 (Chi18 mRNA construct) [%]	% Control N = 1 (FgenL model RNA [3]) [%]	% Control N = 2 (FgenL model RNA [3]) [%]	% Control Average (FgenL model RNA [3]) [%]	Conc. FgenL#1 (FgenL model RNA [3])	Conc. FgenL#2 (FgenL model RNA [3])	EC50 (FgenL model RNA [4]) [mM]
CC(C)C[C@H](N)C(=O)O [Leucine]	30.8	31.9	31.4	16.4	16.9	> 25	43979	60.6	23370	26.2	10474	0.0	0	100.0	24.3	16.9	20.6	8.37	5.85	> 30
NCCCC[C@H](N)C(=O)O [Lysine]	22.0	15.5	18.7	11.7	8.18	> 30	24122	0.0	0	0.0	0	0.0	0	100.0	19.9	17.6	18.7	6.85	6.12	> 30
CSCC[C@H](N)C(=O)O [Methionine]	49.7	49.7	49.7	26.5		> 30	17259	63.5	8392	40.1	6837	0.0	0	100.0	35.4	32.6	34.0	12.2	11.3	> 30
N[C@@H](Cc1ccccc1)C(=O)O [Phenylalanine]	17.2	25.3	21.3	9.19	13.4	> 18	30537	72.1	22175	16.3	3615	0.0	0	100.0	13.8	6.9	10.4	4.76	2.4	> 30
O=C(O)[C@@H]1CCCN1 [Proline]	37.0	34.6	35.8	19.7	18.3	> 30	12033	72.0	7330	28.5	2712	0.0	0	100.0	21.8	20.3	21.0	7.52	7.03	> 30
N[C@@H](CO)C(=O)O [Serine]	42.2	42.2	42.2	22.5		> 30	31778	150.4	19639	0.0	0	0.0	0	100.0	37.7	31.4	34.5	13	10.9	> 30
C[C@@H](O)[C@H](N)C(=O)O [Threonine]	51.4	40.8	46.1	27.4	21.6	> 30	39202	74.6	28759	26.0	10963	0.0	0	100.0	49.3	34.6	41.9	17	12	> 30
N[C@@H](Cc1c[nH]c2ccccc12)C(=O)O [Tryptophan]	2.9	2.9	2.9	1.57		> 30	8974	78.0	7000	47.7	3243	0.0	0	100.0	3.5	1.5	2.5	1.21	0.51	> 30
N[C@@H](Cc1ccc(O)cc1)C(=O)O [Tyrosine]	31.9	31.9	31.9	17		> 30	21493	90.9	22110	56.8	14946	37.6	10375	100.0	33.9	21.9	27.9	11.7	7.59	> 30
